Experimental data: patent publication US11945816B2, “Inhibitors of EGFR and/or HER2 and methods of use” (Dana-Farber Cancer Institute, Inc., priority 2017, dated 2024)

What was measured:
Assay type in all cases: cell-based
[1] = biological target: T1, EGFR InsASV (V769_D770insASV) transformed Ba/F3 cells (Homo sapiens, UniProt P00533, INS769ASV); assay: Proliferation inhibition assay, EGFR InsASV transformed Ba/F3 cells; settings: MTS assay, 72 hours
T1 construct: expressed in transfected cells; host or cells: Ba/F3
Description: (§1) Cell growth inhibition can be assessed by MTS assay or by Cell Titer Glo Luminescent Cell viability assay (Promega®). Cells are seeded and grow in culture plates before they are exposed to representative compounds of the application for various duration. The viability of the cells are then assessed. […] The growth curves can be fitted using a nonlinear regression model with sigmoidal dose response.
(§2) Cell growth inhibition was assessed by MTS assay for Ba/F3, DFCI58-229, and DFCI127c cells, or by Cell Titer Glo Luminescent Cell viability assay (Promega®) for DFC1362JC cells, 3000 Ba/F3 cells were seeded for per well in 96-well plates, and were exposed to representative compounds of the application (3.3 nM to 10 μM) for 72 hours. For DFCI58-229, DFCI127c, and DFC1362JC cells, 5000 cells were seeded per well. All experimental points included 6 to 12 wells. […] The growth curves were fitted using a nonlinear regression model with sigmoidal dose response.
(§3) Activities of representative compounds of the present application in inhibiting EGFR and HER2 were tested by MTS assay (for Ba/F3 cell, DFCI58-229 cell, and DFCI127c cells) or by CellTiter-Glot luminescent cell viability assay (for DFCI362JC cells). For assays with Ba/F3 cells, 3000 cells were seeded for per well in 96-well plates and were exposed to indicated compounds with a concentration of 3.3 to 10 μM for 72 hours. For assays with DFCI58-229 cell, DFCI127c cell, or DFCI362JC cell, 5000 cells were seeded per well in 96-well plates and were exposed to indicated compounds with a concentration of 3.3 to 10 μM for 72 hours.

[2] = biological target: T2, HER2 InsWLV transformed Ba/F3 cells (Homo sapiens, UniProt P04626, INS773WL/M774V); assay: Proliferation inhibition assay, HER2 InsWLV transformed Ba/F3 cells; settings: MTS assay, 72 hours
T2 construct: expressed in transfected cells; host or cells: Ba/F3
Description: as §1, §2, §3

[3] = biological target: T3, HER2 InsGSP (P780_Y781insGSP) transformed Ba/F3 cells (Homo sapiens, UniProt P04626, INS780GSP); assay: Proliferation inhibition assay, HER2 InsGSP transformed Ba/F3 cells; settings: MTS assay, 72 hours, Table 9 key
T3 construct: expressed in transfected cells; host or cells: Ba/F3
Description: as §1, §2, §3

[4] = biological target: T4, HER2 InsYVMA (A775_G776insYVMA) transformed Ba/F3 cells (Homo sapiens, UniProt P04626, INS775YVMA); assay: Proliferation inhibition assay, HER2 InsYVMA transformed Ba/F3 cells; settings: MTS assay, 72 hours
T4 construct: expressed in transfected cells; host or cells: Ba/F3
Description: as §1, §2, §3

[5] = biological target: T5, EGFR InsHH (Y764_V765insHH) transformed Ba/F3 cells (Homo sapiens, UniProt P00533, INS764HH); assay: Proliferation inhibition assay, EGFR InsHH transformed Ba/F3 cells; settings: MTS assay, 72 hours
T5 construct: expressed in transfected cells; host or cells: Ba/F3
Description: as §1, §2, §3

[6] = biological target: T6, EGFR InsSVD (D770_N771insSVD) transformed Ba/F3 cells (Homo sapiens, UniProt P00533, INS770SVD); assay: Proliferation inhibition assay, EGFR InsSVD transformed Ba/F3 cells; settings: MTS assay, 72 hours
T6 construct: expressed in transfected cells; host or cells: Ba/F3
Description: as §1, §2, §3

[7] = biological target: T7, HER2 InsVC (G776delinsVC) transformed Ba/F3 cells (Homo sapiens, UniProt P04626, G776C/INS775V); assay: Proliferation inhibition assay, HER2 InsVC transformed Ba/F3 cells; settings: MTS assay, 72 hours, Table 9 key
T7 construct: expressed in transfected cells; host or cells: Ba/F3
Description: as §1, §2, §3

[8] = biological target: T8, wild-type HER2 transformed Ba/F3 cells (Homo sapiens, UniProt P04626); assay: Proliferation inhibition assay, wild-type HER2 transformed Ba/F3 cells; settings: MTS assay, 72 hours
T8 construct: expressed in transfected cells; host or cells: Ba/F3
Description: as §1, §2, §3

[9] = biological target: T9, wild-type EGFR transformed Ba/F3 cells (Homo sapiens, UniProt P00533); assay: Proliferation inhibition assay, wild-type EGFR transformed Ba/F3 cells; settings: MTS assay, 72 hours
T9 construct: expressed in transfected cells; host or cells: Ba/F3
Description: as §1, §2, §3

[10] = biological target: T10, EGFR InsNPG (D770_N771insNPG) transformed Ba/F3 cells (Homo sapiens, UniProt P00533, INS770NPG); assay: Proliferation inhibition assay, EGFR InsNPG transformed Ba/F3 cells; settings: MTS assay, 72 hours
T10 construct: expressed in transfected cells; host or cells: Ba/F3
Description: as §1, §2, §3

[11] = biological target: T11, EGFR InsH transformed Ba/F3 cells (Homo sapiens, UniProt P00533, DUP773-773); assay: Proliferation inhibition assay, EGFR InsH transformed Ba/F3 cells; settings: MTS assay, 72 hours
T11 construct: expressed in transfected cells; host or cells: Ba/F3
Description: as §1, §2, §3

[12] = biological target: T12, EGFR InsGY (D770delinsGY) transformed Ba/F3 cells (Homo sapiens, UniProt P00533, D770Y/INS769G); assay: Proliferation inhibition assay, EGFR InsGY transformed Ba/F3 cells; settings: MTS assay, 72 hours
T12 construct: expressed in transfected cells; host or cells: Ba/F3
Description: as §1, §2, §3

T10 sequence (P00533 with tags, fused parts or gaps INS770NPG): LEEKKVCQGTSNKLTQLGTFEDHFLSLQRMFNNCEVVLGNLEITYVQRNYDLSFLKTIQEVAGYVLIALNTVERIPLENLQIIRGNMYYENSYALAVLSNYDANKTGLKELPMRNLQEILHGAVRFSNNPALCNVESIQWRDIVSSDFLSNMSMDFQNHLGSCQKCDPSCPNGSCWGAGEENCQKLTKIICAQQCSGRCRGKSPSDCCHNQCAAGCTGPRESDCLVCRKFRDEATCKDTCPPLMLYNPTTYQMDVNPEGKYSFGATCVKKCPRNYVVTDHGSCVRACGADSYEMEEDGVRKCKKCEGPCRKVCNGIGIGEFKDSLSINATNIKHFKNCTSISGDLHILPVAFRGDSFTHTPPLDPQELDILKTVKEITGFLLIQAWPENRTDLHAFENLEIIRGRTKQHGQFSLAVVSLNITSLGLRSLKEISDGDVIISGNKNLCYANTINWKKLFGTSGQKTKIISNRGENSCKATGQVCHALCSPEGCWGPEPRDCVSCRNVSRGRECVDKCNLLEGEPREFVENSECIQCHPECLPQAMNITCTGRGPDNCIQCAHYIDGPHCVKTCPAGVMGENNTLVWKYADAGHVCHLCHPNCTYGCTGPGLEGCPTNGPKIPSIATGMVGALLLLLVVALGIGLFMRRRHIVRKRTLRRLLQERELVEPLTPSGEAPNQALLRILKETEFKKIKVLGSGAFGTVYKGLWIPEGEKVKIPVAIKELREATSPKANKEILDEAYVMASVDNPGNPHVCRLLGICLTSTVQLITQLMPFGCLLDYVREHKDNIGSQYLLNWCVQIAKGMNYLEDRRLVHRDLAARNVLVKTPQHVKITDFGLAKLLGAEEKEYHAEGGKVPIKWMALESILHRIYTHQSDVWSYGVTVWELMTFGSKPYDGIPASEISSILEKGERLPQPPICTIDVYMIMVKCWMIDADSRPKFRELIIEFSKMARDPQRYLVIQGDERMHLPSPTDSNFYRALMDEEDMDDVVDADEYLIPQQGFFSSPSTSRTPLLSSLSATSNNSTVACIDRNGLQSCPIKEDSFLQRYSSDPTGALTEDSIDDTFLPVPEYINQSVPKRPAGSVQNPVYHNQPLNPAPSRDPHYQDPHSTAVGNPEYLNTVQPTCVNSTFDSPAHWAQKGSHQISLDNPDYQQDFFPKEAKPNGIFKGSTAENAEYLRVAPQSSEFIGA
T8 sequence (P04626 23-1255): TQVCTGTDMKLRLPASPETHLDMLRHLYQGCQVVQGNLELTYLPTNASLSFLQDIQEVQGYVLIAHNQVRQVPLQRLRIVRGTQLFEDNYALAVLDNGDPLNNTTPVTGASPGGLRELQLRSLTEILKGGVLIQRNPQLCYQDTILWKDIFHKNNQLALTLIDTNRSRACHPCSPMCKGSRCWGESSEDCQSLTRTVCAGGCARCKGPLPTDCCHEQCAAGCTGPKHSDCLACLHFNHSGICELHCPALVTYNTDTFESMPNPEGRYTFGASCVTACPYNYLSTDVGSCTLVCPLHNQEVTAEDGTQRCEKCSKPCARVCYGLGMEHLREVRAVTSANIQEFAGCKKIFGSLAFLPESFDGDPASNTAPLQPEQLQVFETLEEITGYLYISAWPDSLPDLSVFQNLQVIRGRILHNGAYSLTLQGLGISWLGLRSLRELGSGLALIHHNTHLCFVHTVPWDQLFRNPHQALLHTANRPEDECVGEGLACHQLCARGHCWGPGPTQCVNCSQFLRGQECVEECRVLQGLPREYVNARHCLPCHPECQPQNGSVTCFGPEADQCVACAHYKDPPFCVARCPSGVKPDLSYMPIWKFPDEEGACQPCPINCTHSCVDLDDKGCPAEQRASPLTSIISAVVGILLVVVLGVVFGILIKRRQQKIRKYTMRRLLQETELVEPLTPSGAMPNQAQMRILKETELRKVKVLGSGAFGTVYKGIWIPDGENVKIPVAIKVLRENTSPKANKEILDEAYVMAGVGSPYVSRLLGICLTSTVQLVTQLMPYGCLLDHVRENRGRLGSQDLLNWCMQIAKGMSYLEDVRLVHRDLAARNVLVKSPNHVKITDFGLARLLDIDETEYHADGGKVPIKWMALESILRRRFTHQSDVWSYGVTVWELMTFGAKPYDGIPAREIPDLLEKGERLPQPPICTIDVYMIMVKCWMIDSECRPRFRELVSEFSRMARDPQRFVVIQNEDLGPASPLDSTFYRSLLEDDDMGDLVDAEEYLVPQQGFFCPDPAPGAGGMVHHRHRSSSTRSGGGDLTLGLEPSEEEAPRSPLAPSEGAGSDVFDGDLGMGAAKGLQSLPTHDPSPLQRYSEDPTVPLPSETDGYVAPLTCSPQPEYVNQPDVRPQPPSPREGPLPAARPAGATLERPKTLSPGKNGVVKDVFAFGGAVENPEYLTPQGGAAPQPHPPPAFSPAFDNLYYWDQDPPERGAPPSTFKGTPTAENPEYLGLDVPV
T4 sequence (P04626 with tags, fused parts or gaps INS775YVMA): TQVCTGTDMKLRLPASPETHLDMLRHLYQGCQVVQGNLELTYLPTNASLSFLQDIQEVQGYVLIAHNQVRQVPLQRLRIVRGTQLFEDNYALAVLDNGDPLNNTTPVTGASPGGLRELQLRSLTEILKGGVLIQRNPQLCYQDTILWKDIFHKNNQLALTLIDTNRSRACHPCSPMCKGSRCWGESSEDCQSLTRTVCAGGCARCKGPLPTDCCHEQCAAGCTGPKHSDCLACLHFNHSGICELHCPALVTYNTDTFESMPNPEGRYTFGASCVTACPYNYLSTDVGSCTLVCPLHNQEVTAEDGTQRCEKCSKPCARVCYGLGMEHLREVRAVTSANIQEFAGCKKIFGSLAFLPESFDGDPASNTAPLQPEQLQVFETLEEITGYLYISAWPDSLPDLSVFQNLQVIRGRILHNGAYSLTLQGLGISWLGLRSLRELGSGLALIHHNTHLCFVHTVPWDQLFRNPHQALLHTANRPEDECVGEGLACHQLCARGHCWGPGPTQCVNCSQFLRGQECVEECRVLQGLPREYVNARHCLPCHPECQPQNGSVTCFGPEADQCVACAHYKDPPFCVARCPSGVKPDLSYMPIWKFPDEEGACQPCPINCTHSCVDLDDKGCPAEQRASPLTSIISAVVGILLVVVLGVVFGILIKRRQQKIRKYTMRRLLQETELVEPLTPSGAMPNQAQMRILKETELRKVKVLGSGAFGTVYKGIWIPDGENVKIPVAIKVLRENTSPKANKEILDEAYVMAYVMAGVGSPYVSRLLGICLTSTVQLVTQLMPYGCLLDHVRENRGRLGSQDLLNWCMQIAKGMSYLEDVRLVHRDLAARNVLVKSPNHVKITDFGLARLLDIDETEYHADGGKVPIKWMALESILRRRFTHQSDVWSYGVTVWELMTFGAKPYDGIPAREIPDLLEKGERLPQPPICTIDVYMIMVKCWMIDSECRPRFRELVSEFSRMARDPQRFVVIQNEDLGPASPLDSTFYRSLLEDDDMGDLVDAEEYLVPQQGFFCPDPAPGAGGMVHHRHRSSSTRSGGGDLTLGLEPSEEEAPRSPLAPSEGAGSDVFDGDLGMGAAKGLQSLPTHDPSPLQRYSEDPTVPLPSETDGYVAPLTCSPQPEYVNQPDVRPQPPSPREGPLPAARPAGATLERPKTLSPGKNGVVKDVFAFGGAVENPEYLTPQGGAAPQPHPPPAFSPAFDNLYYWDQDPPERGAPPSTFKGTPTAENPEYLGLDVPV
T2 sequence (P04626 with tags, fused parts or gaps INS773WL/M774V): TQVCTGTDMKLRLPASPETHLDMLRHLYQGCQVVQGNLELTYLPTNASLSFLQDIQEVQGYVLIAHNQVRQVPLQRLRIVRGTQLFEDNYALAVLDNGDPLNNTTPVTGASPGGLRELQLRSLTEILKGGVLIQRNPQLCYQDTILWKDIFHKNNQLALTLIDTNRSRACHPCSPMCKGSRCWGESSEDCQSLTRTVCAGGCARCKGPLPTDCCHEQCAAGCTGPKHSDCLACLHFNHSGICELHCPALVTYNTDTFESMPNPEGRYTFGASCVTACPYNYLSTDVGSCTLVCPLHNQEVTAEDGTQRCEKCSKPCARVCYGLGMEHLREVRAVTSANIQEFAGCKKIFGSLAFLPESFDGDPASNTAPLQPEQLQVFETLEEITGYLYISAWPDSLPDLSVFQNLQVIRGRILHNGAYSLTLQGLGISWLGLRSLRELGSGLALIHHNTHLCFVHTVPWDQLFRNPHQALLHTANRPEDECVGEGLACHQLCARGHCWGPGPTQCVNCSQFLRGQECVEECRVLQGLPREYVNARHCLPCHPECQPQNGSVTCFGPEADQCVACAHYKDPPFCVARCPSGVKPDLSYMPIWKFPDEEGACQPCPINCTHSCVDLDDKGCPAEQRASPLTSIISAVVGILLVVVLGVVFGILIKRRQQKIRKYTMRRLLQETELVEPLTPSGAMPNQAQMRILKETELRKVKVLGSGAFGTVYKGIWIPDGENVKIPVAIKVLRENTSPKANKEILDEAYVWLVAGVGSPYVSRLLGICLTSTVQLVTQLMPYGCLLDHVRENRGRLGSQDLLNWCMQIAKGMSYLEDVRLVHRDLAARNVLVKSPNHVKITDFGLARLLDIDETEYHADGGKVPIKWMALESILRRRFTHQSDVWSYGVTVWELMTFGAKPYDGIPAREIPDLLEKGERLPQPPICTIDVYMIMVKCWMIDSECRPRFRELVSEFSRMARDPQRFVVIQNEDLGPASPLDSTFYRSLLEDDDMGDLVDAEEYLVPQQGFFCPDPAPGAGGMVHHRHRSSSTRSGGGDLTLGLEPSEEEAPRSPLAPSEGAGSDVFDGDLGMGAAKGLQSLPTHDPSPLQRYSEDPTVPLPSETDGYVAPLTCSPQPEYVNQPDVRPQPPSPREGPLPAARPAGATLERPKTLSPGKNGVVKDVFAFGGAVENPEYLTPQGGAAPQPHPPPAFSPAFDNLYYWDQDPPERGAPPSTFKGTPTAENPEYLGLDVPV

Structure (SMILES)	EC50 [1] [nM]	EC50 ([2]; Table 9 key) [nM]	EC50 [3] [nM]	EC50 ([4]; Table 9 key) [nM]	EC50 [5] [nM]	EC50 [6] [nM]	EC50 [7] [nM]	EC50 ([8]; Table 9 key) [nM]	EC50 [9] [nM]	EC50 [10] [nM]	EC50 [11] [nM]	EC50 [12] [nM]	EC50 ([2]; Table 10 key) [nM]	EC50 ([4]; Table 10 key) [nM]	EC50 ([8]; Table 10 key) [nM]
C=CC(=O)Nc1cccc(-n2c(=O)c(Oc3ccc(F)cc3F)cc3cnc(Nc4ccc(N5CCN(C)CC5)cc4OC)nc32)c1 [Compound 6]	< 200	< 100	< 100	< 100	< 200	< 200	100 to 250	< 100	< 200	< 200	< 200	< 200	–	–	–
CN(C)C/C=C/C(=O)Nc1cccc(-n2c(=O)c(Oc3ccc(F)cc3F)cc3cnc(Nc4cnn(C)c4)nc32)c1 [Compound 10]	< 200	250 to 500	< 100	< 100	200 to 600	200 to 600	250 to 500	< 100	200 to 600	< 200	600 to 1000	200 to 600	–	–	–
C=CC(=O)NC1CCCC(n2c(=O)c(Oc3ccc(F)cc3F)cc3cnc(Nc4cnn(C)c4)nc32)C1 (stereo not shown) [Compound 23]	< 200	100 to 250	< 100	< 100	< 200	< 200	< 100	< 100	< 200	< 200	200 to 600	< 200	–	–	–
C=CC(=O)N1CCC(Cn2c(=O)c(Oc3ccc(F)cc3F)cc3cnc(Nc4cnn(C)c4)nc32)C1 (stereo not shown) [Compound 26]	< 200	100 to 250	< 100	> 500	600 to 1000	< 200	250 to 500	< 100	< 200	< 200	> 1000	< 200	–	–	–
C=CC(=O)Nc1cccc(-n2c(=O)c(Oc3ccc(F)cc3)cc3cnc(Nc4cnn(C)c4)nc32)c1 [Compound 1, N-(3-(6-(4-fluorophenoxy)-2-((1-methyl-1H-pyrazol-4-yl)amino)-7-oxopyrido[2,3-d]pyrimidin-8(7H)-yl)phenyl)acrylamide]	< 200	100 to 250	< 100	< 100	< 200	< 200	< 100	< 100	< 200	< 200	< 200	< 200	–	–	–
C=CC(=O)Nc1cc(Nc2ncc3cc(Oc4ccc(F)cc4F)c(=O)n(C)c3n2)c(OC)cc1N(C)CCN(C)C [Compound 29, N-(5-((6-(2,4-difluorophenoxy)-8-methyl-7-oxo-7,8-dihydropyrido[2,3-d]pyrimidin-2-yl)amino)-2-((2-(dimethylamino)ethyl)(methyl)amino)-4-methoxyphenyl)acrylamide]	< 200	< 100	< 100	< 100	< 200	< 200	< 100	< 100	< 200	< 200	< 200	< 200	–	–	–
C=CC(=O)N1CCCC(n2c(=O)c(Oc3ccc(F)cc3F)cc3cnc(Nc4cnn(C)c4)nc32)CC1 (stereo not shown) [Compound 24]	< 200	100 to 250	< 100	< 100	200 to 600	< 200	< 100	< 100	< 200	< 200	200 to 600	< 200	–	–	–
C=CC(=O)Nc1cc(Nc2ncc3cc(Oc4ccc(F)cc4F)c(N)nc3n2)c(OC)cc1N(C)CCN(C)C [Compound 140]	–	250 to 500	–	< 100	–	200 to 600	–	< 100	< 200	–	600 to 1000	200 to 600	–	–	–
C=CC(=O)Nc1cc(Nc2ncc3cc(Oc4cc(F)c(F)cc4F)c(=O)n(C)c3n2)c(OC)cc1N(C)CCN(C)C [Compound 135]	–	–	–	–	–	< 200	–	–	< 200	–	200 to 600	< 200	< 200	< 200	< 200
C=CC(=O)Nc1cc(Nc2ncc3cc(Oc4ccc(F)cc4Cl)c(=O)n(C)c3n2)c(OC)cc1N(C)CCN(C)C [Compound 134]	–	–	–	–	–	< 200	–	–	< 200	–	200 to 600	< 200	< 200	< 200	< 200
C=CC(=O)Nc1cc(Nc2ncc3cc(Nc4ccc(F)cc4F)c(=O)n(C)c3n2)c(OC)cc1OCCN(C)C [Compound 142]	–	100 to 250	–	< 100	–	< 200	–	< 100	< 200	–	600 to 1000	< 200	–	–	–
C=CC(=O)Nc1cccc(-n2c(=O)c(Oc3c(F)cc(F)cc3F)cc3cnc(Nc4cnn(C)c4)nc32)c1 [Compound 82]	–	–	–	–	–	< 200	–	–	< 200	–	< 200	< 200	< 200	< 200	< 200
C=CC(=O)Nc1cc(Nc2ncc3cc(Oc4c(F)cc(F)cc4F)c(=O)n(C)c3n2)c(OC)cc1N(C)CCN(C)C [Compound 136]	–	–	–	–	–	< 200	–	–	< 200	–	200 to 600	< 200	< 200	< 200	< 200
C=CC(=O)Nc1cc(Nc2ncc3cc(Oc4ccc(F)cc4F)c(=O)n(C)c3n2)ncc1N(C)CCN(C)C [Compound 105]	–	–	–	–	–	> 1000	–	–	200 to 600	–	> 1000	> 1000	600 to 1000	600 to 1000	200 to 600
